From PMC7675540 (ACS Omega, 2020)

Target: T1, carboxylesterase 1 (CES1) (Homo sapiens, UniProt P23141)
T1 sequence (P23141 18-567): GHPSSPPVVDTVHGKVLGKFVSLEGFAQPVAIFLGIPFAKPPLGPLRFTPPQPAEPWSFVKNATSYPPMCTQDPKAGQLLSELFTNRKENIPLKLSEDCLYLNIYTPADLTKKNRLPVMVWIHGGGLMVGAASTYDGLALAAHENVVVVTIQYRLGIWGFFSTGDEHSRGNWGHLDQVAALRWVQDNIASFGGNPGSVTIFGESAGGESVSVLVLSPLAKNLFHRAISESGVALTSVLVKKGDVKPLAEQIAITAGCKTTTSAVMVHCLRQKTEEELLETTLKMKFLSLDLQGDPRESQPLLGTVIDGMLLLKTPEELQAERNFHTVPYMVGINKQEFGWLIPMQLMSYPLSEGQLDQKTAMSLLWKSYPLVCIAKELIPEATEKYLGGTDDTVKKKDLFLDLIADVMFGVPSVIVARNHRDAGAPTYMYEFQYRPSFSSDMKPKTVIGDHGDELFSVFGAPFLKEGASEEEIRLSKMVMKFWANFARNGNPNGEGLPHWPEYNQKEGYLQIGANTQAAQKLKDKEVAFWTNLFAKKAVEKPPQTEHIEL
Experiment: LC-MS/MS of the product of PGD2-G hydrolysis
Format: biochemical

For `CCCCC[C@H](O)/C=C/[C@H]1C(=O)C[C@H](O)[C@@H]1C/C=C\CCCC(=O)O` [PGD2], the “LC-MS/MS of the product of PGD2-G hydrolysis” value was “Our data indicates that PGD2-G/PGD2 is a substrate/product dyad for CES1”.
